In patent publication US10246455B2, “Histone deacetylase inhibitors” (Taipei Medical University, priority 2014, dated 2019):
Where two headings read alike, the source gives them in different places.

Key:
[1] = system: LNCaP104-S prostate cancer cells; test: Two dimensional cell growth inhibitory assay (MTT): LNCaP104-S; settings: Homo sapiens, 72 h, read-out: MTT IC50 ± SD
Method: (§3) For the two dimensional assay, cancel cells in the logarithmic phase were cultured in complete medium in 96-well plates at 37° C. with 5% CO2 for overnight incubation, and treated with various concentrations of test compounds for three generative times. Cells were then incubated with a serum free medium containing 3-(4,5-dimethylthiazol-2-yl)-2,5-diphenyltetrazolium bromide (MTT) at a final concentration of 0.5 mg/mM for four hours. MTT was converted to formazan by metabolically viable cells. Formazan was then solublized in 50% DMF solution containing 20% SDS at 37° C. overnight. Absorbance was measured at 570 nm using a spectramax M5 microplate reader (Molecular Devices, UK).

[2] = system: HONE-1 (nasopharyngeal carcinoma); test: IC50 in human cancer cell lines (inhibiting HDAC): HONE-1
[3] = system: KB cell line (oral carcinoma); test: IC50 in human cancer cell lines (inhibiting HDAC): KB
[4] = system: LNCaP104-R2 prostate cancer cells; test: Two dimensional cell growth inhibitory assay (MTT): LNCaP104-R2; settings: Homo sapiens, 72 h, read-out: MTT IC50 ± SD
Method: as §3

[5] = system: human PC3 prostate cancer cells xenograft; test: In vivo antitumor activity assay, PC3 xenograft
Source text: The antitumor effect of the two test compounds were examined in mice xenografted with human PC3 prostate cancer cells or HCT116 colorectal cells.
Five million PC3 cells were subcutaneously inoculated into specific pathogen-free male athymic mice (strain BALB/cAnN.Cg-Foxn1nu/CrlNarl) from the National Laboratory Animal Center, Taiwan. Mice were subsequently fed under specific pathogen-free conditions and provided with sterile water and food. When the tumor volume reached 150 to 200 mm^3, mice were assigned to groups randomly and treated with vehicle control or Compound 7 or 5b at 25/50/100 mg/kg. The compound was administered once a day, 5 days/week for 2 weeks (n=6) by oral administration. Tumor volume and body weight change were measured twice a week. At the end of the experiments (day 25 after first dosing), animals were euthanized in a CO2-containing chamber, and the tumors were collected and fixed in formaldehyde. The terminal deoxynucleotidyl transferase-mediated dUTP nick end labeling assay (TUNEL) was conducted for apoptosis detection. Tumor tissue sections were analyzed using a FITC In Situ Cell death detection kit (Roche) and fluorescence microscopy. Tissue treated with DNase was used as the positive control. Green fluorescence labeled nucleus indicates the induction of DNA fragmentation.

[6] = system: PC3 prostate cancer cells; test: Three dimensional cell growth inhibitory assay (cellular spheres, MTT, microscopy): PC3; type: cell-based, human; settings: for IC50: Homo sapiens
Method: (§1) For the three dimensional assay, cells in the logarithmic phase were cultured in 50% Matrigel-containing complete medium in 96-well plates at 37° C. with 5% CO2 for five days incubation, and treated with appropriate concentrations of test compounds for three generative times. Images of spheroids were taken under a microscope, and spheroid cell survival was determined by MTT assays.
(§2) The cells (in the 2D culture) and the cellular spheres (in the 3D culture) were treated with test compounds for 72 hours, and then subjected to the MTT colorimetric assay. Each value represents the mean of three independent experiments. Cellular spheres formed in semi-solid and drug effect on cellular spheres were examined using phase-contrast light microscopy.
More specifically, cellular spheres formed in semi-solid and drug effect on cellular spheres were examined using phase-contrast light microscopy. 3D structures of cells were analyzed using 4× magnification, 10× magnification, and 20× magnification.

[7] = system: PC3 prostate cancer cells; test: Two dimensional cell growth inhibitory assay (MTT): PC3; settings: Homo sapiens
Method: as §3

[8] = system: Du145 prostate cancer cells; test: Two dimensional cell growth inhibitory assay (MTT): Du145; settings: Homo sapiens, DU-145, 72 h, read-out: MTT IC50 ± SD
Method: as §3

[9] = system: H460 (non-small-cell lung carcinoma); test: IC50 in human cancer cell lines (inhibiting HDAC): H460
[10] = system: LNCaP104-S prostate cancer cells; test: Three dimensional cell growth inhibitory assay (cellular spheres, MTT): LNCaP104-S; type: cell-based; settings: Homo sapiens; 3D cellular sphere culture, LNCaP104-S (androgen-dependent), 72 hours; read-out: MTT IC50 ± SD
Method: as §1, §2

[11] = system: androgen-independent PC3 prostate cancer cells; test: Cell cycle analysis; type: cell-based, human; settings: for cell cycle arrest and apoptosis: androgen-independent PC3 prostate cancer cells
Method: More specifically, cells in the logarithmic phase were initially seeded at a density of 1×10^6 in 100 mm^2 dishes. After treatment with various concentrations of test compounds for the indicated times, cells were trypsinized, washed with PBS, and fixed in 70% ethanol. The fixed cells were then treated with 50 μg/mL RNase and stained with 50 μg/mL propidium iodide at room temperature for 20 minutes. The DNA content was determined by BD FACS Calibur flow cytometry system (BD Biosciences). For each analysis, 10,000 cells were counted, and the percentage of cells in each phase was calculated using ModFit LT software (Verity Software House, Inc.).

PC3 (prostate carcinoma) = test: IC50 in human cancer cell lines (inhibiting HDAC): PC3
[12] = system: LNCaP104-R1 prostate cancer cells; test: Two dimensional cell growth inhibitory assay (MTT): LNCaP104-R1; settings: Homo sapiens, 72 h, read-out: MTT IC50 ± SD
Method: as §3

[13] = system: HT-29 (colorectal carcinoma); test: IC50 in human cancer cell lines (inhibiting HDAC): HT-29
[14] = system: histone and α-tubulin acetylation in PC3 cells; test: Western blot: acetylation in PC3 cells; type: cell-based, human; settings: concentration-dependent
Method: More specifically, cells in the logarithmic phase were initially seeded at a density of 1×10^6 in 100 mm^2 dishes. […] Briefly, cells were lysed with the cell lysis reagent CelLytic™ M (Sigma-Aldrich) containing 1 mM DTT, 1 mM PMSF and protease inhibitors for whole-cell lysate preparation. Equal amounts of lysate (on a protein basis) were then differentiated using the SDS-PAGE, blotted on PVDF membranes, conjugated with various specific primary antibodies, and then probed with appropriate secondary antibodies. The immunoreactive bands were detected using the ECL method and visualized on Kodak Bio-MAX MR film.
Proteins from cells were extracted and subjected to the western blotting analysis. β-Actin was used as an internal control. The deacetylase enzyme assay was based on a homogeneous fluorescence release assay. […] After fluorophore from the deacetylated substrates, fluorescent signal was detected.

[15] = system: LNCaP104-R1 prostate cancer cells; test: Three dimensional cell growth inhibitory assay (cellular spheres, MTT): LNCaP104-R1; type: cell-based; settings: Homo sapiens; 3D cellular sphere culture, LNCaP104-R1 (androgen-independent), 72 hours; read-out: MTT IC50 ± SD
Method: as §1, §2

O=C(/C=C/c1cccc(S(=O)(=O)n2ccc3cccnc32)c1)NO [Compound 7, (E)-3-(3-(1H-Pyrrolo[2,3-b]pyridin-1-ylsulfonyl)phenyl)-N-hydroxyacrylamide]
IC50 [1]: 1980 ± 100 nM | IC50 ([2]; HONE1, read-out: IC50, inhibiting HDAC in human cancer cell lines): 1200 ± 310 nM | IC50 ([3]; read-out: IC50, inhibiting HDAC in human cancer cell lines, oral carcinoma): 760 ± 230 nM | IC50 [4]: 2090 ± 110 nM | inhibition of human PC3 xenograft growth ([5]; 25 mg/kg oral, day 25 after the first dosing): about 50% | inhibition of human PC3 xenograft growth ([5]; 50 mg/kg oral, day 25 after the first dosing): about 50% | body weight change ([5]; PC3 xenograft mice, 25 and 50 mg/kg oral): without causing much body weight change | effect on spheroid structure of PC3 tumors ([6]; 3D culture, phase-contrast light microscopy): disrupted the spheroid structure of PC3 tumors in a concentration-dependent manner | IC50 ([6]; read-out: 3D Culture): 6380 ± 160 nM | cytotoxic / anti-proliferative activity in 3D versus 2D culture ([6]; human prostate carcinoma cells, 2D and 3D culture): potent in both a 3D spheroid culture and a 2D culture | IC50 ([7]; read-out: 2D Culture): 2990 ± 170 nM | IC50 [8]: 1220 ± 50 nM | IC50 ([9]; NCI-H460, read-out: IC50, inhibiting HDAC in human cancer cell lines): 570 ± 10 nM | IC50 [10]: 3210 ± 150 nM | cell cycle arrest and apoptosis [11]: induced cell cycle arrest and apoptosis | IC50 (PC3 (prostate carcinoma); read-out: IC50, inhibiting HDAC in human cancer cell lines): 1630 ± 410 nM | IC50 [12]: 1150 ± 30 nM | IC50 ([13]; HT-29, read-out: IC50, inhibiting HDAC in human cancer cell lines): 1240 ± 400 nM | histone and α-tubulin acetylation [14]: induced histone and α-tubulin acetylation | IC50 [15]: 2450 ± 150 nM

COc1ccc(S(=O)(=O)N2CCc3cc(/C=C/C(=O)NO)cnc32)cc1 [Compound 5b, (E)-N-hydroxy-3-(1-(4-methoxyphenylsulfonyl)-2,3-dihydro-1H-pyrrolo[2,3-b]pyridin-5-yl)acrylamide]
IC50 [1]: 150 ± 30 nM | IC50 ([2]; HONE1, read-out: IC50 ± SD against human cancer cell lines): 447 ± 45.2 nM | IC50 ([3]; Homo sapiens, read-out: IC50 ± SD against human cancer cell lines, KB, oral carcinoma): 86.6 ± 17.1 nM | IC50 [4]: 180 ± 70 nM | inhibition of human PC3 xenograft growth ([5]; 50 mg/kg oral, day 29 after the first dosing): about 70% | inhibition of human PC3 xenograft growth ([5]; 100 mg/kg oral): completely inhibited | tumor regression ([5]; PC3 xenograft, 100 mg/kg oral): achieved tumor regression from day 8 to day 29 | IC50 ([6]; 3D cellular sphere culture, PC3, 72 hours, read-out: MTT IC50 ± SD): 410 ± 60 nM | IC50 ([6]; Table 6, cell line not given, read-out: IC50 value 3D Culture): 410 ± 60 nM | IC50 ([7]; 72 h, read-out: MTT IC50 ± SD): 170 ± 40 nM | IC50 ([7]; read-out: IC50 value 2D Culture): 170 ± 40 nM | IC50 [8]: 90 ± 30 nM | IC50 ([9]; NCI-H460, read-out: IC50 ± SD against human cancer cell lines): 112 ± 9.5 nM | IC50 [10]: 230 ± 30 nM | p21 up-regulation [11]: induced p21 up-regulation | cell cycle arrest and apoptosis [11]: induced cell cycle arrest and apoptosis | IC50 (PC3 (prostate carcinoma); read-out: IC50 ± SD against human cancer cell lines): 170 ± 40 nM | IC50 [12]: 100 ± 40 nM | IC50 ([13]; HT-29, read-out: IC50 ± SD against human cancer cell lines): 85.4 ± 9.8 nM | histone and α-tubulin acetylation [14]: induced histone and α-tubulin acetylation | IC50 [15]: 150 to 625 nM
